Test results as given in publication PMC9917830, “New Piperazine Derivatives of 6-Acetyl-7-hydroxy-4-methylcoumarin as 5-HT1A Receptor Agents” (International Journal of Molecular Sciences, 2023).
Like-named read-outs stand apart in the source and are kept apart here.

Tests used:
[1] = molecular target: T1, 5-HT2A receptor (Rattus norvegicus, UniProt P14842); test: Competitive 5-HT2A binding assay with [3H]ketanserin, rat frontal cortex membranes; conditions: 1 nM [3H]ketanserin
T1 construct: Brains were rapidly removed and placed on ice; from tissue; host or cells: Sprague–Dawley rat frontal cortex membranes
T1 sequence (P14842 whole entry): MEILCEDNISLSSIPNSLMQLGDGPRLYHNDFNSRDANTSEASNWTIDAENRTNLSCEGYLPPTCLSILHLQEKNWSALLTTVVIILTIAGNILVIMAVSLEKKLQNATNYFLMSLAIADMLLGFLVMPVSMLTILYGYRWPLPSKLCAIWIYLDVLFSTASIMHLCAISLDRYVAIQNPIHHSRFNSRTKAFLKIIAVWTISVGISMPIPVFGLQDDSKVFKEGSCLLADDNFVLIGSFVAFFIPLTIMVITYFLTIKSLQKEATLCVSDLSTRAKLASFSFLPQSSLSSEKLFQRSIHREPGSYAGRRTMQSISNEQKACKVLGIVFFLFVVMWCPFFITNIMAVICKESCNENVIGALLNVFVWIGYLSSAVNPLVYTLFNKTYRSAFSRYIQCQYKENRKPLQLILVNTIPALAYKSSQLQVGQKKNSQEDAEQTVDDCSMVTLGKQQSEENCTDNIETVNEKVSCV
Protocol: (§1) Sprague–Dawley rats were sacrificed by isoflurane overdose. Brains were rapidly removed and placed on ice. Hippocampi (for 5-HT1A assays) and frontal cortices (for 5-HT2A assays) were dissected on a Petri dish. The tissue from 10 rats was homogenized in 30 vol. homogenization buffer (50 mM Tris-HCl, […], 1 mM EDTA, 1 mM dithiothreitol) with a hand-held Teflon-glass homogenizer. The homogenate was centrifuged at 48,000× g at 4 °C for 15 min. The pellet was suspended and homogenized in homogenization buffer and incubated for 10 min at 36 °C. The centrifugation and suspension steps were repeated twice. The final pellet was homogenized in 5 vol. 50 mM Tris-HCl, pH = 7.4 buffer and stored at −80 °C for not more than 6 months.
(§2) Non-specific binding was determined with 10 μM serotonin in both assays. The final DMSO concentration in the assay was 5%. After incubation, the reaction mixture was deposited with the FilterMate-96 Harvester (Perkin Elmer, Waltham, MA, USA) onto Unifilter® GF/C plates (Perkin Elmer, Waltham, MA, USA) presoaked in 0.4% PEI for 1h. Each well was washed with 2 mL of 50 mM Tris-HCl (pH 7.4) buffer to separate bound ligands from free ones. Plates were left to dry overnight. Then, 35 µL of Microscint-20 scintillation fluid (Perkin Elmer, Waltham, MA, USA) was added to each filter well and left to equilibrate for 2 h. Filter-bound radioactivity was counted in a MicroBeta^2 LumiJet scintillation counter (Perkin Elmer, Waltham, MA, USA). Binding curves were fitted with one-site non-linear regression. Binding affinity (pKi ± SEM and Ki ± 95% confidence intervals) for each compound was calculated from […] values with the Cheng-Prusoff equation from two separate experiments.

[2] = molecular target: T2, 5-HT1A receptor (Rattus norvegicus, UniProt P19327); test: Competitive 5-HT1A binding assay with [3H]8-OH-DPAT, rat hippocampal membranes; conditions: 1 nM [3H]8-OH-DPAT
T2 construct: Brains were rapidly removed and placed on ice; from tissue; host or cells: Sprague–Dawley rat hippocampus membranes
T2 sequence (P19327 1-422): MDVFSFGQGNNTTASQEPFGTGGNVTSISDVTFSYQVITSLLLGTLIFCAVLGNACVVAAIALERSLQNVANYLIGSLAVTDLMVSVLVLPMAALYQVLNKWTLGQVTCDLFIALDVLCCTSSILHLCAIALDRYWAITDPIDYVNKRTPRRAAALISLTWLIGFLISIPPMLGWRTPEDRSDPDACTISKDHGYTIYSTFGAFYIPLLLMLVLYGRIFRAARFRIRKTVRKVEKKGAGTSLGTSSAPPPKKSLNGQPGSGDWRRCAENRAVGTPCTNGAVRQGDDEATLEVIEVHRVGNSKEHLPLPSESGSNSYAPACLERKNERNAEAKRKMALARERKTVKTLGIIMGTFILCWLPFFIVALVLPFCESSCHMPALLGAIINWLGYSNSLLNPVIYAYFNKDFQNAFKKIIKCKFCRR
Protocol: as §1, §2

[3] = molecular target: T2, 5-HT1A receptor; test: 5-HT1A receptor activation in the [35S]GTP-γ-S assay (agonist and antagonist mode); format: biochemical; conditions: for IC50: read-out: 5-HT1A Receptor Inhibition IC50 (nM, 95% CI); for agonist or antagonist properties at the 5-HT1A receptor: result in words; for Emax / EC50: agonist mode; for Emax: efficacy ± SEM; for EC50: rat hippocampal membranes
Protocol: as §1, with “The pellet was suspended and homogenized in homogenization buffer and incubated for 10 min at 36 °C.” left out
Non-specific binding was determined with 100 µM of unlabeled GTPγS. The compounds were tested in both the agonist and antagonist mode. […] The final DMSO concentration in the assay was 5%. The reaction mixture was incubated for 90 min at 30 °C on an orbital shaker set at 250 rpm. The reaction mixture was then deposited under vacuum with the FilterMate Harvester® (Perkin Elmer, Waltham, MA, USA) onto Unifilter® GF/C Plates (Perkin Elmer, Waltham, MA, USA) presoaked with wash buffer (50 mM Tris-HCl, pH = 7.4). The wells were then rapidly washed with 2 mL of wash buffer. The filter plates were dried overnight at room temperature. Once completely dry, 35 µL of MicroScint PS (Perkin Elmer, Waltham, MA, USA) scintillation fluid was added to each well. Radioactivity was counted in a MicroBeta^2 LumiJet scintillation counter (Perkin Elmer, Waltham, MA, USA). […] The curves were fitted with the three-parameter non-linear regression model.

[4] = 95% CI in brackets, read-out: 5-HT2A Affinity Ki (nM, 95% CI)
[5] = 95% CI in brackets, read-out: 5-HT1A Affinity Ki (nM, 95% CI)
[6] = ± SEM, read-out: 5-HT2A Affinity pKi (converted)
[7] = 95% CI in brackets, read-out: 5-HT1A Receptor Stimulation EC50 (nM, 95% CI)
[8] = ± SEM, two experiments, read-out: 5-HT1A Affinity pKi (nM ± SEM) (converted)

`COc1ccccc1N1CCN(CCCCOc2cc3oc(=O)cc(C)c3cc2C(C)=O)CC1` [Compound 1, 6-Acetyl-7-{4-[4-(2-methoxyphenyl)piperazin-1-yl]butoxy}-4-methylchromen-2-one] showed a Ki [1, 4] of 1420 nM, a Ki [2, 5] of 5.75 nM and a melting point of 126 to 127 °C. For the same compound, the IC50 [3] was 301 nM and the “agonist or antagonist properties at the 5-HT1A receptor” value (“agonist or antagonist properties” for short) [3] was “antagonistic properties”.
Compound `COc1cccc(N2CCN(CCCCOc3cc4oc(=O)cc(C)c4cc3C(C)=O)CC2)c1` [Compound 2, 6-Acetyl-7-{4-[4-(3-methoxyphenyl)piperazin-1-yl]butoxy}-4-methylchromen-2-one] has a Ki [1, 4] of 1160 nM, a Ki [1, 6] of 1170 nM and a Ki [2, 5] of 12.9 nM. For the same compound, the Emax [3] was 146 ± 1.1%, the EC50 [3, 7] was 181 nM and the “agonist or antagonist properties” value [3] was “agonistic activity”.
Compound `CC(=O)c1cc2c(C)cc(=O)oc2cc1OCCCCN1CCN(c2ccccc2Br)CC1` [Compound 3, 6-Acetyl-7-{4-[4-(2-bromophenyl)piperazin-1-yl]butoxy}-4-methylchromen-2-one] has a Ki [1, 4] of 1020 nM, a Ki [2, 5] of 1.96 nM and a melting point of 121 to 122 °C. The IC50 [3] was 5180 nM and the “agonist or antagonist properties” value [3] was “antagonistic properties”.
`CC(=O)c1cc2c(C)cc(=O)oc2cc1OCCCCN1CCN(c2cccc(Br)c2)CC1` [Compound 4, 6-Acetyl-7-{4-[4-(3-bromophenyl)piperazin-1-yl]butoxy}-4-methylchromen-2-one] showed a Ki [1, 4] of 1160 nM, a Ki [2, 5] of 0.78 nM and a Ki [2, 8] of 0.759 nM. For the same compound, the melting point was 109 to 110 °C, the Emax [3] was 176 ± 1.2% and the EC50 [3, 7] was 113 nM. The “agonist or antagonist properties” value [3] was “agonistic profile”.
Work on `CC(=O)c1cc2c(C)cc(=O)oc2cc1OCCCCN1CCN(c2ccc(Br)cc2)CC1` [Compound 5, 6-Acetyl-7-{4-[4-(4-bromophenyl)piperazin-1-yl]butoxy}-4-methylchromen-2-one] yielded a Ki [1, 4] of 1350 nM, a Ki [2, 5] of 1.4 nM and a melting point of 145 to 146 °C. For the same compound, the IC50 [3] was 63200 nM and the “agonist or antagonist properties” value [3] was “antagonistic properties”.
`CC(=O)c1cc2c(C)cc(=O)oc2cc1OCCCCN1CCN(c2ccccc2F)CC1` [Compound 6, 6-Acetyl-7-{4-[4-(2-fluorophenyl)piperazin-1-yl]butoxy}-4-methylchromen-2-one] gave a Ki [1, 4] of 1470 nM, a Ki [2, 5] of 1.04 nM and a Ki [2, 8] of 1.07 nM. It also gave a melting point of 112 to 113 °C, an Emax [3] of 139 ± 1.1% and an EC50 [3, 7] of 101 nM. The EC50 ([3]; read-out: 5-HT1A Receptor Stimulation pEC50 (nM ± SEM) (converted)) was 102 nM.
`CC(=O)c1cc2c(C)cc(=O)oc2cc1OCCCCN1CCN(c2ccccc2Cl)CC1` [Compound 7, 6-Acetyl-7-{4-[4-(2-chlorophenyl)piperazin-1-yl]butoxy}-4-methylchromen-2-one] gave a Ki [1, 4] of 2080 nM, a Ki [2, 5] of 0.57 nM and a Ki [2, 8] of 0.55 nM. It also gave a melting point of 132 to 133 °C, an Emax [3] of 130 ± 1.4% and an EC50 [3, 7] of 49 nM. For the same compound, the “agonist or antagonist properties” value [3] was “strongest agonist”.
Compound `CC(=O)c1cc2c(C)cc(=O)oc2cc1OCCCCN1CCN(c2ccccc2C#N)CC1` [Compound 8, 6-Acetyl-7-{4-[4-(2-cyanophenyl)piperazin-1-yl]butoxy}-4-methylchromen-2-one] has a Ki [1, 4] of 705 nM, a Ki [2, 5] of 9.44 nM and a melting point of 117 to 118 °C. For the same compound, the Emax [3] was 124 ± 1.1% and the EC50 [3, 7] was 59 nM.
With `CC(=O)c1cc2c(C)cc(=O)oc2cc1OCCCCN1CCN(c2cccc(Cl)c2Cl)CC1` [Compound 9, 6-Acetyl-7-{4-[4-(2,3-dichlorophenyl)piperazin-1-yl]butoxy}-4-methylchromen-2-one] the Ki [1, 4] was 1290 nM, the Ki [1, 6] was 1230 nM and the Ki [2, 5] was 6.3 nM. The melting point was 111 to 112 °C, the Emax [3] was 133 ± 1.3% and the EC50 [3, 7] was 149 nM.
Compound `CC(=O)c1cc2c(C)cc(=O)oc2cc1OCCCCN1CCN(c2cc(C)cc(C)c2)CC1` [Compound 10, 6-Acetyl-7-{4-[4-(3,5-dimethylphenyl)piperazin-1-yl]butoxy}-4-methylchromen-2-one] has a Ki [1, 6] of 513 nM, a Ki [2, 5] of 22.4 nM and a melting point of 101 to 102 °C. It also gave an Emax [3] of 139 ± 1.4% and an EC50 [3, 7] of 475 nM.
In the case of `CC(=O)c1cc2c(C)cc(=O)oc2cc1OCCCCN1CCN(c2cc(C)ccc2C)CC1` [Compound 11, 6-Acetyl-7-{4-[4-(2,5-dimethylphenyl)piperazin-1-yl]butoxy}-4-methylchromen-2-one], the Ki [1, 4] is reported as 3710 nM, the Ki [1, 6] is reported as 3980 nM and the Ki [2, 5] is reported as 174 nM. For the same compound, the melting point was 130 to 131 °C and the IC50 [3] was 21900 nM.
Compound `CC(=O)c1cc2c(C)cc(=O)oc2cc1OCCCCN1CCN(c2ccc([N+](=O)[O-])cc2)CC1` [Compound 12, 6-Acetyl-7-{4-[4-(4-nitrophenyl)piperazin-1-yl]butoxy}-4-methylchromen-2-one] has a Ki [1, 4] of 1500 nM, a Ki [1, 6] of 1550 nM and a Ki [2, 5] of 1800 nM. The Ki [2, 8] was 1780 nM, the melting point was 138 to 139 °C and the IC50 [3] was 53400 nM.
Work on `CC(=O)c1cc2c(C)cc(=O)oc2cc1OCCCCN1CCOCC1` [Compound 13, 6-Acetyl-7-[4-(morpholin-4-yl)butoxy]-4-methylchromen-2-one] yielded a Ki [1, 4] of 6390 nM, a Ki [2, 5] of 9620 nM and a melting point of 115 to 116 °C. The IC50 [3] was 93400 nM.
Work on `CC(=O)c1cc2c(C)cc(=O)oc2cc1OCCCCN1CCN(c2ccncc2)CC1` [Compound 14] yielded a Ki [1, 4] of 3360 nM, a Ki [2, 5] of 1660 nM and a melting point of 107 to 108 °C. The IC50 [3] was 25000 nM.
In the case of `CC(=O)c1cc2c(C)cc(=O)oc2cc1OCCCCN1CCN(c2cnccn2)CC1` [Compound 15, 6-Acetyl-7-{4-[4-(pyrazin-2-yl)piperazin-1-yl]butoxy}-4-methylchromen-2-one], the Ki [1, 4] is reported as 6600 nM, the Ki [2, 5] is reported as 25 nM and the melting point is reported as 150 to 151 °C. The Emax [3] was 170 ± 1.3%, the EC50 [3, 7] was 1300 nM and the “agonist or antagonist properties” value [3] was “agonistic profile”.
